Columns and labels:
[1] = tested on: wheat powdery mildew (Erysiphe graminis); test: Test of preventive effect on wheat powdery mildew; settings: wheat seedlings
[2] = tested on: powdery mildew (Sphaerotheca cucurbitae); test: Test of effect on cucumber powdery mildew, vaporization properties; format: in vivo; settings: 100 ppm drug solution dropped on aluminum foil on cucumber first leaf; seven days after inoculation; 2 cm or more = vaporization effect
Experimental: A 10-mm square piece of aluminum foil was attached with a double-sided tape on the first leaf of cucumber planted in a 7.5-cm-diameter pot. […] The drug solution was added dropwise in […] using a micropipette. After air-drying the drug solution, the leaf was inoculated by spraying with a spore suspension of powdery mildew (Sphaerotheca cucurbitae). Seven days after inoculation, the diameter of a disease development inhibition circle on the cucumber first leaf was measured. The appearance of necrotic lesions on the leaf was examined in comparison with the untreated plot. There was judged to be a vaporization effect when an inhibition circle having a diameter of 2 cm or more was formed around the aluminum foil.

[3] = tested on: Wheat scab (Microdochium nivale); test: Test of inhibition of growth of wheat scab mycelium; format: cell-based; settings: read-out: inhibition rate (mycelium growth length)
[4] = treatment concentration 100 ppm

Row | Compound | Diameter of disease development inhibition circle [2] [cm] | also measured
1 | CCN(C)/C=N/c1ccc(-c2ccc(C(C)(C)C)cc2)cc1C [Reference Compound A] | 0 | Preventive value ([1]; treatment concentration 10 ppm): 10; Preventive value ([1]; treatment concentration 20 ppm): 20; Preventive value ([1]; treatment concentration 40 ppm): 70; Preventive value [1, 4]: 100
2 | CCN(C)C=Nc1cc(C)c(C#CC[Si](C)(C)C)cc1C [Compound 127] | 2.0 | –
3 | CCN(C)C=Nc1ccc(C#C[Si](CC)(CC)CC)cc1C [Compound 69] | 2.75 | –
4 | CCN(C)/C=N/c1cc(C)c(-c2ccc(C(C)(C)C)cc2)cc1C [Reference Compound B] | 0 | Preventive value ([1]; treatment concentration 10 ppm): 40; Preventive value ([1]; treatment concentration 20 ppm): 70; Preventive value ([1]; treatment concentration 40 ppm): 70; Preventive value [1, 4]: 95
5 | CCN(C)C=Nc1cc(C)c(C#C[Si](CC)(CC)CC)cc1C [Compound 124] | 3.75 | –
6 | CCN(C)C=Nc1cc(Cl)c(C#CC(C)(C)C)cc1C.Cl [Compound 172] | 7.0 | –
7 | CCN(C)C=Nc1cc(C)c(C#C[Si](C)(C)C(C)(C)C)cc1C [Compound 126] | 6.5 | –
8 | CCN(C)C=Nc1cc(C)c(C#CC(C)(C)O[Si](C)(C)C)cc1C [Compound 161] | 6.0 | –
9 | N-ethyl-N-methyl-N′-[2,5-dimethyl-4-(2-trimethylsilyl-1-ethynyl)phenyl]formamidine (+)-camphorsulfonate [Compound 174] | 7.0 | –
10 | Cc1cc(N=CN(C)C)c(C)cc1C#C[Si](C)(C)C [Compound 59, N,N-dimethyl-N′-[2,5-dimethyl-4-(2-trimethylsilyl-1-ethynyl)phenyl]formamidine] | – | inhibition at 10 ppm [3]: 100%
11 | CCN(C)C=Nc1cc(C)c(C#CC(C)(C)C)cc1Cl [Compound 85] | 6.0 | –
12 | CCN(C)C=Nc1ccc(C#CC(C)(C)C)cc1C [Compound 66, N-ethyl-N-methyl-N′-[2-methyl-4-(3,3-dimethyl-1-butynyl)phenyl]formamidine] | – | inhibition at 10 ppm [3]: 100%
13 | CC1(C)[C@H]2CC[C@]1(CS(=O)(=O)O)C(=O)C2.CCN(C)C=Nc1cc(C)c(C#C[Si](C)(C)C)cc1C [Compound 175] | 7.0 | –
14 | CCN(C)C=Nc1cc(F)c(C#C[Si](C)(C)C)cc1C [Compound 158] | 3.75 | –
15 | CCN(C)C=Nc1cc(F)c(C#C[Si](C)(C)C)cc1C.Cl [Compound 176] | 7.0 | –
16 | CCN(C)C=Nc1cc(C)c(C#CC(C)(C)C)cc1C [Compound 98] | 9.5 | –
17 | Cc1cc(N=CN(C)C)c(C)cc1C#CC(C)(C)C [Compound 52, N,N-dimethyl-N′-[2,5-dimethyl-4-(3,3-dimethyl-1-butynyl)phenyl]formamidine] | – | inhibition at 10 ppm [3]: 100%
18 | CCN(C)C=Nc1cc(C)c(C#C[Si](C)(C)C(C)(C)C)cc1C.Cl [Compound 163] | 8.0 | –
19 | Cc1cc(N=CN(C)C(C)C)c(C)cc1C#C[Si](C)(C)C(C)(C)C [Compound 171] | 7.0 | –
20 | CCN(C)C=Nc1cc(C)c(C#C[Si](C)(C)C)cc1C [Compound 123, N-ethyl-N-methyl-N′-[2,5-dimethyl-4-(2-trimethylsilyl-1-ethynyl)phenyl]formamidine] | 9.5 | Preventive value ([1]; treatment concentration 10 ppm): 100; Preventive value ([1]; treatment concentration 20 ppm): 100; Preventive value ([1]; treatment concentration 40 ppm): 100; Preventive value [1, 4]: 100; inhibition at 10 ppm [3]: 100%
21 | CCN(C)C=Nc1cc(Cl)c(C#CC(C)(C)C)cc1C [Compound 91] | 6.0 | –
22 | CCN(C)C=Nc1cc(C)c(C#C[Si](C)(C)C)cc1C.Cl [Compound 162, N-ethyl-N-methyl-N′-[2,5-dimethyl-4-(2-trimethylsilyl-1-ethynyl)phenyl]formamidine hydrochloride] | 8.0 | –
23 | Cc1cc(N=CN2CCCCC2)c(C)cc1C#C[Si](C)(C)C [Compound 147] | 2.5 | –
24 | CCN(C)C=Nc1cc(Cl)c(C#C[Si](C)(C)C)cc1C [Compound 93] | 6.0 | –

From patent publication US8785649B2, “Ethynylphenylamidine compound or salt thereof, method for producing same, and fungicide for agricultural and horticultural use” (priority 2010, dated 2014)
